Experimental data as given in publication PMC8533333, “Melatonin Analogues Potently Inhibit MAO-B and Protect PC12 Cells against Oxidative Stress” (Antioxidants, 2021).

Columns and labels:
[1] = Neuroprotection against rotenone-induced toxicity in PC12 cells (MTT); conditions: rat
Method: (§1) Control cells were incubated in an equivalent volume of DMSO to a final concentration of 0.3%. Neuroprotective effects of the tested compounds on the toxicity induced by 6-OHDA or rotenone in PC12 cells were evaluated as described previously with slight modifications. In brief, cells were pre-treated with the tested compounds or rasagiline at the indicated concentrations for 4 h. Next, they were exposed to 6-OHDA (50 μM) or rotenone (1 μM) for 24 h. In another set of experiments, the influence of HO-1 inhibitor, ZnPP, on the neuroprotective effects of the tested compounds against 6-OHDA-induced oxidative damage was investigated as previously reported. Briefly, the cells were pre-treated with the tested compounds for 4 h and then incubated with 0.2 µM of ZnPP for 30 min. Subsequently, 6-OHDA was added at a final concentration of 50 µM and incubated for 24 h.
(§2) After the desired treatment, cell viability was determined by MTT assay as described previously. Briefly, MTT was added to the cells at the final concentration of 0.5 mg/mL, which was followed by incubation for 3 h at 37 °C. The supernatants were carefully removed, and then, 300 μL of DMSO was added to each well to dissolve formazan precipitate. The absorbance of the dissolved solution was measured at 550 nm using a microplate reader (SpectraMax M2^e, Molecular Devices, Sunnyvale, CA, USA). The cell viability was presented as the percentage of the absorbance measured in the vehicle-treated control cells.

[2] = Neuroprotection against 6-OHDA-induced oxidative toxicity in PC12 cells (MTT); conditions: rat
Method: as §1
as §2, with “The supernatants were carefully removed, and then, 300 μL of DMSO was added to each well to dissolve formazan precipitate.” left out

| Structure (SMILES) | viability at 24 h, 1 μM [1] [%] | viability at 24 h, 50 µM [2] [%] |
| --- | --- | --- |
| C=C(C)[C@H]1Cc2c(ccc3c2O[C@@H]2COc4cc(OC)c(OC)cc4[C@@H]2C3=O)O1 [rotenone, reference compound] | 64.4 ± 1.4 | – |
| NCCc1cc(O)c(O)cc1O [6-OHDA, 6-Hydroxydopamine] | – | 50.9 ± 3.1 |
